Values joined by “and” are separate entries in the source; they are usually repeats but may differ in a detail not shown here. Equal values may be shown once. Each block holds one compound with its values, some of them ahead of it.
Legend:
[1] = target: T1, DNA topoisomerase 2-alpha (Homo sapiens, UniProt P11388); experiment: Inhibition of human DNA topoisomerase IIalpha using plasmid pNO1 as a substrate after 30 mins
[2] = target: T1, DNA topoisomerase 2-alpha; experiment: Inhibition of human DNA topoisomerase IIalpha ATPase activity assessed as residual ATP hydrolysis at 125 uM measured up to 60 mins
[3] = target: T1, DNA topoisomerase 2-alpha; experiment: Inhibition of human DNA topoisomerase IIalpha assessed as reduction in enzyme-catalyzed supercoiling of relaxed circular pBR322 DNA by measuring linear DNA level at 500 uM after 60 mins by agarose gel electrophoresis in presence of 50 uM of etoposide; set-up: scale not given: the % may be the effect or the level left
[4] = target: T1, DNA topoisomerase 2-alpha; experiment: Inhibition of human DNA topoisomerase IIalpha assessed as reduction in enzyme-catalyzed supercoiling of relaxed circular pBR322 DNA by measuring linear DNA level at 31.5 uM after 60 mins by agarose gel electrophoresis in presence of 50 uM of etoposide; set-up: scale not given: the % may be the effect or the level left
[5] = target: T1, DNA topoisomerase 2-alpha; experiment: Inhibition of human DNA topoisomerase IIalpha assessed as decatenation of kDNA at 125 uM after 90 mins by ethidium bromide staining; set-up: scale not given: the % may be the effect or the level left
[6] = target: T1, DNA topoisomerase 2-alpha; experiment: Inhibition of human DNA topoisomerase IIalpha assessed as reduction in enzyme-catalyzed supercoiling of relaxed circular pBR322 DNA by measuring linear DNA level at 500 uM after 60 mins by agarose gel electrophoresis in presence of 62.5 uM of etoposide; set-up: scale not given: the % may be the effect or the level left
[7] = target: T1, DNA topoisomerase 2-alpha; experiment: Inhibition of human DNA topoisomerase IIalpha ATPase activity assessed as residual ATP hydrolysis at 31.5 uM measured up to 60 mins
[8] = target: T1, DNA topoisomerase 2-alpha; experiment: Inhibition of human DNA topoisomerase IIalpha assessed as reduction in enzyme-catalyzed supercoiling of relaxed circular pBR322 DNA by measuring linear DNA level at 500 uM after 60 mins by agarose gel electrophoresis; set-up: scale not given: the % may be the effect or the level left
[9] = target: T1, DNA topoisomerase 2-alpha; experiment: Inhibition of human DNA topoisomerase IIalpha assessed as reduction in enzyme-catalyzed supercoiling of relaxed circular pBR322 DNA by measuring linear DNA level at 3.9 uM after 60 mins by agarose gel electrophoresis; set-up: scale not given: the % may be the effect or the level left
[10] = target: T1, DNA topoisomerase 2-alpha; experiment: Inhibition of human DNA topoisomerase IIalpha assessed as decatenation of kDNA at 3.9 uM after 90 mins by ethidium bromide staining; set-up: scale not given: the % may be the effect or the level left
[11] = target: T1, DNA topoisomerase 2-alpha; experiment: Inhibition of human DNA topoisomerase IIalpha assessed as reduction in enzyme-catalyzed supercoiling of relaxed circular pBR322 DNA by measuring linear DNA level at 31.5 uM after 60 mins by agarose gel electrophoresis; set-up: scale not given: the % may be the effect or the level left
[12] = target: T1, DNA topoisomerase 2-alpha; experiment: Inhibition of human DNA topoisomerase IIalpha assessed as reduction in enzyme-catalyzed supercoiling of relaxed circular pBR322 DNA by measuring linear DNA level at 31.5 uM after 60 mins by agarose gel electrophoresis in presence of 62.5 uM of etoposide; set-up: scale not given: the % may be the effect or the level left
[13] = target: T1, DNA topoisomerase 2-alpha; experiment: Inhibition of human DNA topoisomerase IIalpha assessed as reduction in enzyme-catalyzed supercoiling of relaxed circular pBR322 DNA by measuring linear DNA level after 60 mins by agarose gel electrophoresis
[14] = target: T1, DNA topoisomerase 2-alpha; experiment: Inhibition of human DNA topoisomerase IIalpha ATPase activity assessed as residual ATP hydrolysis at 500 uM measured up to 60 mins
[15] = target: T1, DNA topoisomerase 2-alpha; experiment: Inhibition of human DNA topoisomerase IIalpha ATPase activity assessed as residual ATP hydrolysis at 3.9 uM measured up to 60 mins
[16] = target: T1, DNA topoisomerase 2-alpha; experiment: Inhibition of human DNA topoisomerase IIalpha assessed as decatenation of kDNA at 500 uM after 90 mins by ethidium bromide staining; set-up: scale not given: the % may be the effect or the level left
[17] = target: T1, DNA topoisomerase 2-alpha; experiment: Inhibition of human DNA topoisomerase IIalpha assessed as decatenation of kDNA at 31.5 uM after 90 mins by ethidium bromide staining; set-up: scale not given: the % may be the effect or the level left
[18] = target: T1, DNA topoisomerase 2-alpha; experiment: Inhibition of human DNA topoisomerase IIalpha assessed as decatenation of kDNA after 90 mins by ethidium bromide staining
[19] = target: T1, DNA topoisomerase 2-alpha; experiment: Inhibition of human DNA topoisomerase IIalpha assessed as reduction in enzyme-catalyzed supercoiling of relaxed circular pBR322 DNA by measuring linear DNA level at 50 uM after 60 mins by agarose gel electrophoresis; set-up: scale not given: the % may be the effect or the level left
[20] = target: T1, DNA topoisomerase 2-alpha; experiment: Inhibition of human DNA topoisomerase IIalpha assessed as reduction in enzyme-catalyzed supercoiling of relaxed circular pBR322 DNA by measuring linear DNA level at 15.625 uM after 60 mins by agarose gel electrophoresis; set-up: scale not given: the % may be the effect or the level left
[21] = target: T1, DNA topoisomerase 2-alpha; experiment: Inhibition of human DNA topoisomerase IIalpha assessed as reduction in enzyme-catalyzed supercoiling of relaxed circular pBR322 DNA by measuring linear DNA level at 62.5 uM after 60 mins by agarose gel electrophoresis; set-up: scale not given: the % may be the effect or the level left
[22] = target: T1, DNA topoisomerase 2-alpha; experiment: Inhibition of human DNA topoisomerase IIalpha assessed as reduction in enzyme-catalyzed supercoiling of relaxed circular pBR322 DNA by measuring linear DNA level at 125 uM after 60 mins by agarose gel electrophoresis in presence of 50 uM of etoposide; set-up: scale not given: the % may be the effect or the level left
[23] = target: T1, DNA topoisomerase 2-alpha; experiment: Inhibition of human DNA topoisomerase IIalpha assessed as reduction in enzyme-catalyzed supercoiling of relaxed circular pBR322 DNA by measuring linear DNA level at 125 uM after 60 mins by agarose gel electrophoresis; set-up: scale not given: the % may be the effect or the level left
[24] = target: T1, DNA topoisomerase 2-alpha; experiment: Inhibition of human DNA topoisomerase IIalpha assessed as reduction in enzyme-catalyzed supercoiling of relaxed circular pBR322 DNA by measuring linear DNA level at 3.9 uM after 60 mins by agarose gel electrophoresis in presence of 62.5 uM of etoposide; set-up: scale not given: the % may be the effect or the level left
[25] = target: T1, DNA topoisomerase 2-alpha; experiment: Inhibition of human DNA topoisomerase IIalpha assessed as reduction in enzyme-catalyzed supercoiling of relaxed circular pBR322 DNA by measuring linear DNA level at 125 uM after 60 mins by agarose gel electrophoresis in presence of 62.5 uM of etoposide; set-up: scale not given: the % may be the effect or the level left
[26] = Lipophilicity, log P of the compound; type: physicochemical; conditions: octanol/water
[27] = target: T1, DNA topoisomerase 2-alpha; experiment: Inhibition of human DNA topoisomerase IIalpha assessed as reduction in enzyme-catalyzed supercoiling of relaxed circular pBR322 DNA by measuring linear DNA level at 3.9 uM after 60 mins by agarose gel electrophoresis in presence of 50 uM of etoposide; set-up: scale not given: the % may be the effect or the level left

T1 sequence (P11388 whole entry): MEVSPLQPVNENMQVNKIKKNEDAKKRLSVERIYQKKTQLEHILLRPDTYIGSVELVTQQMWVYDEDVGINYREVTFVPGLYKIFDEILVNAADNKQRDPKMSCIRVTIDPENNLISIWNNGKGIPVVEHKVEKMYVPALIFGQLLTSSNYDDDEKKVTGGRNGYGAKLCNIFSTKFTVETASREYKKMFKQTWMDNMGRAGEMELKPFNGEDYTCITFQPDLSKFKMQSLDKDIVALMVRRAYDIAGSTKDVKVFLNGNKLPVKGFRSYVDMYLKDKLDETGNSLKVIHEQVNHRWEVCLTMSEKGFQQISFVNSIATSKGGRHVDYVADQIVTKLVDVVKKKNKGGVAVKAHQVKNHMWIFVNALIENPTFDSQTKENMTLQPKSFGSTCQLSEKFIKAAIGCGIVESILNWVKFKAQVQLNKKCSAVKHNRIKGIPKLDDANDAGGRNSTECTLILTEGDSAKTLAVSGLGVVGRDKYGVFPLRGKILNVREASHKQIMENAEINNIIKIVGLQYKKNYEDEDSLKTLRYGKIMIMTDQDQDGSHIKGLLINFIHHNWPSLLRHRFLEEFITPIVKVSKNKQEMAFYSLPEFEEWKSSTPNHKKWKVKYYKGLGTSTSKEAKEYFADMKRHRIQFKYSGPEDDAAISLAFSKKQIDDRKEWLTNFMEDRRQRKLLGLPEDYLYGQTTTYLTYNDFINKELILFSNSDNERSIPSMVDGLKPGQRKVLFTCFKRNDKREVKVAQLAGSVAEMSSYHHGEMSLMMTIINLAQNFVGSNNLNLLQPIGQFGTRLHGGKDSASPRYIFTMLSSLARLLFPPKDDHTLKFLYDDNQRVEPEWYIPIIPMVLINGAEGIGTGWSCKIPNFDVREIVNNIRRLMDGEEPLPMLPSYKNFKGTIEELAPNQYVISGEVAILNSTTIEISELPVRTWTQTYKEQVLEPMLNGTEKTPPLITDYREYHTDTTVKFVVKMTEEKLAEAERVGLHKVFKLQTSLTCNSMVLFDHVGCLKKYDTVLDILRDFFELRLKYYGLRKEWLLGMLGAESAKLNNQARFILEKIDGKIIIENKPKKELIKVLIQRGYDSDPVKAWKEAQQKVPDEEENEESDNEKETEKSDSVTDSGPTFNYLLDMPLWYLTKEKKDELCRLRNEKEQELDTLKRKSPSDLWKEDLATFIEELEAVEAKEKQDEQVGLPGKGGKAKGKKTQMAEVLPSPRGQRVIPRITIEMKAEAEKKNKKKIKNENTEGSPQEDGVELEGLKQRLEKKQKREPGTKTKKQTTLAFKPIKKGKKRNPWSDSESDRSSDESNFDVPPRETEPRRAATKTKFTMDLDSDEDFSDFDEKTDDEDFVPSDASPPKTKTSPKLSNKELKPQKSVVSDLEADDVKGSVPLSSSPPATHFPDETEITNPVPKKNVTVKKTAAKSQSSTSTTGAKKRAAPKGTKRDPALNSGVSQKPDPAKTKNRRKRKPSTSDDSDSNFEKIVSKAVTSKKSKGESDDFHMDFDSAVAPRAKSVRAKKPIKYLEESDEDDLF

IC50 [1]: > 1000 µM
Compound: COc1nc(Nc2ccccc2C(=O)O)nc(OC)n1

IC50 [1]: > 1000 µM
Compound: CC(C)OC(=O)C(C)NC(=O)c1ccc(Nc2nc(Cl)nc(Cl)n2)cc1 (stereo unspecified)

Activity [2]: 0%
Activity [3]: 5.3%
Activity [4]: 33.5%
Activity [5]: 8.55%
Activity [6]: 1.4%
Activity [7]: 93.7%
Activity [8]: 2.3%
Activity [9]: 3%
Activity [10]: 91.5%
Activity [11]: 2.3%
Activity [12]: 18.5%
inhibition [13]: Dose-dependent effect
Activity [14]: 0%
Activity [15]: 86.9%
Activity [16]: 0.115%
Activity [17]: 92.6%
inhibition [18]: Dose-dependent effect
Activity [19]: 34.6%
IC50 [1]: 72.5 µM
Activity [20]: 3.1%
Activity [21]: 2.1% and 18.1%
Activity [22]: 9.2%
Activity [23]: 1.6%
Activity [24]: 20.6%
Activity [25]: 16.3%
logP [26]: 2.7
Activity [27]: 34.3%
Compound: O=c1nc(SCc2ccccc2)nc(SCc2ccccc2F)[nH]1

IC50 [1]: > 1000 µM
Compound: OCCc1ccccc1Nc1nc(Cl)nc(Cl)n1

IC50 [1]: 147 µM
Compound: O=c1nc(SCc2ccccc2)nc(SCc2ccc(F)cc2)[nH]1

IC50 [1]: > 1000 µM
Compound: CC(C)(C)c1ccccc1Nc1nc(Cl)nc(Cl)n1

IC50 [1]: > 1000 µM
Compound: CCc1ccccc1Nc1nc(Cl)nc(Cl)n1

IC50 [1]: 481 µM
Compound: O=c1nc(SCc2ccccc2)nc(SCC2CC2)[nH]1

IC50 [1]: 488 µM
Compound: O=c1nc(SCc2ccccc2)nc(SCc2cccc([N+](=O)[O-])c2)[nH]1

IC50 [1]: 219 µM
Compound: O=c1nc(SCc2ccccc2)nc(SCc2ccc(Cl)cc2)[nH]1

IC50 [1]: > 1000 µM
Compound: COc1ccc(CSc2nc(SCc3ccccc3)nc(=O)[nH]2)cc1

IC50 [1]: > 1000 µM
Compound: Nc1ccc(-c2nc(=S)[nH]c(=O)[nH]2)cc1

IC50 [1]: > 1000 µM
Compound: O=c1nc(SCc2ccccc2)nc(SCC2CCC2)[nH]1

IC50 [1]: 528 µM
Compound: N#Cc1cccc(CSc2nc(SCc3ccccc3)nc(=O)[nH]2)c1

IC50 [1]: > 1000 µM
Compound: COc1ccc(CNc2nc(Cl)nc(N(C)CCO)n2)cc1

IC50 [1]: > 1000 µM
Compound: COc1nc(Nc2ccccc2C(=O)N[C@@H](C)C(=O)OCc2ccccc2)nc(N[C@@H](C)C(=O)OCc2ccccc2)n1

IC50 [1]: 377 µM
Compound: O=c1nc(SCc2ccccc2)nc(SCc2ccccc2[N+](=O)[O-])[nH]1

IC50 [1]: > 1000 µM
Compound: COc1ccc(CNc2nc(Cl)nc(Cl)n2)cc1

IC50 [1]: > 1000 µM
Compound: O=c1nc(SCc2ccccc2)nc(SCC2CCCCC2)[nH]1

IC50 [1]: 235 µM
Compound: CCCCSc1nc(SCc2ccccc2)nc(=O)[nH]1

IC50 [1]: > 1000 µM
Compound: COc1nc(N[C@H](CCC(=O)OCc2ccccc2)C(=O)OCc2ccccc2)nc(OC)n1

IC50 [1]: > 1000 µM
Compound: OCCc1ccccc1Nc1nc(Cl)nc(NCc2ccccc2)n1

IC50 [1]: > 1000 µM
Compound: COc1ccccc1CSc1nc(SCc2ccccc2)nc(=O)[nH]1

IC50 [1]: 486 µM
Compound: N#Cc1ccc(CSc2nc(SCc3ccccc3)nc(=O)[nH]2)c(F)c1

IC50 [1]: > 1000 µM
Compound: O=c1nc(SCc2ccccc2)nc(S)[nH]1
